From paper PMC5352776, “Neutron activation increases activity of ruthenium-based complexes and induces cell death in glioma cells independent of p53 tumor suppressor gene” (Biometals, 2017)

Assays:
[1] = tested on: U87 (p53 wild-type) glioblastoma cells; test: MTT cytotoxic activity assay, U87 cells; assay type: cell-based, human; settings: for Selectivity index U87: SI = IC50 MRC5/IC50 tumor cell; for IC50: 24 h exposure, MTT
Method: (§1) Malignant human Glioblastoma tumor cell lines U87 (p53 wild-type), T98 (p53 mutant) and normal cells MRC5 (Human Fetal Lung Fibroblast) were obtained from the American Type Culture Collection (ATCC, USA). The cells were maintained in Dulbecco’s Modified Eagle’s Medium (DMEM, Gibco), supplemented with 10% fetal bovine serum (FBS-Cultilab) and antibiotics (50 U/ml penicillin, […] streptomycin), at 37 °C in a humidified 5% CO2 atmosphere. For all experiments, cells were seeded at appropriate concentrations to ensure exponential growth.
(§2) The cytotoxicity of ruthenium(II) compounds was determined by measuring mitochondrial activity as a indicator of cell viability dependent on the reduction of MTT 3-(4,5-dimethylthiazol-2-yl)-2,5-diphenyl tetrazolium bromide to formazan (Mosmann [1983]). Cells (1.5 × 10^3/well) were seeded in 200 μl complete medium into 96-well microplates in triplicates. The plates were incubated at 37 °C in 5% CO2 for 24 h to allow cell adhesion, prior to drug testing. All radioactive or non-radioactive tested compounds were dissolved in sterile DMSO and diluted to reach final concentrations ranging from 1 × 10^−10 to 1 × 10^−4 mol l^−1. Cells were exposed to the compounds for a 24 h period and then, 0.5 mg ml^−1 of MTT solution was added to each well and further incubated for 4 h. The precipitated formazan crystals were dissolved in DMSO and the absorbance of produced color measured spectrophotometrically at 570 nm. The results were expressed as % viability of non-treated cell (control) versus drug concentration and the concentration that reduces cell viability by 50% (IC50) was calculated.

[2] = tested on: T98 (p53 mutant) glioblastoma cells; test: MTT cytotoxic activity assay, T98 cells; assay type: cell-based, human; settings: for Selectivity index T98: SI = IC50 MRC5/IC50 tumor cell; for IC50: 24 h exposure, MTT
Method: as §1, §2

[3] = tested on: MRC5 (Human Fetal Lung Fibroblast); test: MTT cytotoxic activity assay, MRC5 normal cells; assay type: cell-based; settings: 24 h exposure
Method: as §1, §2

[4] = Radioactive (neutron activated form)
[5] = non-radioactive compounds, listed as [Ru(pic)(bipy)(dppf)]PF6
[6] = non-radioactive compounds, listed as [Ru(pic)(bipy)(dppp)]PF6
[7] = radioactive (neutron activated) compounds

| Compound | Selectivity index U87 ([1]; Non-radioactive) | IC50 ([1]; non-radioactive compounds) [µM] | Selectivity index T98 ([2]; Non-radioactive) | IC50 ([2]; non-radioactive compounds) [µM] | IC50 ([3]; non-radioactive compounds) [µM] | Selectivity index U87 [1, 4] | Selectivity index T98 [2, 4] | IC50 [1, 5] [µM] | IC50 [2, 5] [µM] | IC50 [1, 6] [µM] | IC50 [2, 6] [µM] | IC50 [1, 7] [µM] | IC50 [2, 7] [µM] | IC50 [3, 7] [µM] |
| --- | --- | --- | --- | --- | --- | --- | --- | --- | --- | --- | --- | --- | --- | --- |
| N.N.[Cl][Pt][Cl] [Cisplatin, reference compound] | 2.87 | 1.8 ± 0.2 | 0.95 | 5.3 ± 1.9 | 5.05 ± 0.7 |  |  |  |  |  |  |  |  |  |
| F[P-](F)(F)(F)(F)F.O=C([O-])c1ccccn1.[Ru+2].c1ccc(-c2ccccn2)nc1.c1ccc(P(CCCCP(c2ccccc2)c2ccccc2)c2ccccc2)cc1 [[Ru(pic)(bipy)(dppb)]PF6 (1), [Ru(pic)(bipy)(dppb)]PF6] | 2.55 | 16.1 ± 3.3 | 3.45 | 11.9 ± 5.9 | 41 ± 10.1 | 1.63 | 1.14 |  |  |  |  |  |  |  |
| F[P-](F)(F)(F)(F)F.O=C([O-])c1ccccn1.[Ru+2].c1ccc(-c2ccccn2)nc1.c1ccc(P(CCP(c2ccccc2)c2ccccc2)c2ccccc2)cc1 [[Ru(pic)(bipy)(dppe)]PF6 (2), [Ru(pic)(bipy)(dppe)]PF6] | 2.95 | 27.8 ± 11.7 | 4.32 | 19 ± 5.9 | 82.1 ± 9.1 | 0.87 | 0.39 |  |  |  |  |  |  |  |
| F[P-](F)(F)(F)(F)F.O=C([O-])c1ccccn1.[Fe+2].[Ru+2].c1ccc(-c2ccccn2)nc1.c1ccc(P(c2ccccc2)[c-]2cccc2)cc1.c1ccc(P(c2ccccc2)[c-]2cccc2)cc1 [[Ru(pic)(bipy)(dppf)]PF6 (3), [Ru(pic)(bipy)(dppf)]PF6] | 2.23 | 4 ± 8.5 | 2.91 | 3 ± 0.7 | 8.9 ± 2.3 | 0.90 | 0.70 | 3.98 ± 0.85 | 3.05 ± 0.72 |  |  |  |  |  |
| F[P-](F)(F)(F)(F)F.O=C([O-])c1ccccn1.[Ru+2].c1ccc(-c2ccccn2)nc1.c1ccc(P(CCCP(c2ccccc2)c2ccccc2)c2ccccc2)cc1 [[Ru(pic)(bipy)(dppp)]PF6 (4), [Ru(pic)(bipy)(dppp)]PF6] | 0.29 | 4.9 ± 2.5 | 0.98 | 1.5 ± 0.5 | 1.47 ± 0.6 | 1.52 | 0.76 |  |  | 4.92 ± 2.46 | 1.49 ± 0.5 |  |  |  |
| [^103Ru(pic)(bipy)(dppb)]PF6 [[^103Ru(pic)(bipy)(dppb)]PF6 (1)] |  |  |  |  |  |  |  |  |  |  |  | 0.00024 | 0.00034 | 0.00039 |
| [^103Ru(pic)(bipy)(dppe)]PF6 [[^103Ru(pic)(bipy)(dppe)]PF6 (2)] |  |  |  |  |  |  |  |  |  |  |  | 0.00023 | 0.00052 | 0.0002 |
| [^103Ru(pic)(bipy)(dppf)]PF6 [[^103Ru(pic)(bipy)(dppf)]PF6 (3)] |  |  |  |  |  |  |  |  |  |  |  | 0.00042 | 0.00054 | 0.00038 |
| [^103Ru(pic)(bipy)(dppp)]PF6 [[^103Ru(pic)(bipy)(dppp)]PF6 (4)] |  |  |  |  |  |  |  |  |  |  |  | 0.00031 | 0.00062 | 0.00047 |
